# Calls of active or inactive are those of the source. No cut-off for these calls is given here.
# Experiments:
# [1] = Antimetastatic activity against human HCC cells xenografted in BALB/c mouse assessed as reduction lung metastatic nodules at 1 mg/kg, iv administered once every 2 days for 14 days; format: functional; details: 336 h, time 14 day
# HepG2 [2] = test: Downregulation of Spermidine contents in human HepG2 cells measured after 24 hrs by HPLC analysis; format: functional, cell-based
# [3] = Upregulation of PAO expression in human HepG2 cells at 10 uM measured after 24 hrs relative to control; format: functional
# HepG2 [4] = test: Downregulation of Putrescine contents in human HepG2 cells measured after 24 hrs by HPLC analysis; format: functional, cell-based
# HepG2 [5] = test: Inhibition of tumor metastasis in human HepG2 cells assessed as downregulation of LC3-II gene expression level at 5 to 15 uM measured after 24 hrs by qRT-PCR analysis; format: functional, cell-based; details: dose 5-15 µM
# [6] = Toxicity in BALB/c mouse xenografted with human HCC cells assessed as effect on lung weight index at 1 to 5 mg/kg, iv administered once daily for 7 days; format: organism-based; details: in vivo, 168 h, dose 1-5 mg/kg, time 7 day
# [7] = Drug uptake in golgi apparatus of human HepG2 cells at 10 uM incubated for 8 hrs by Golgi-tracker dye based laser confocal microscopy; format: ADME, subcellular, Golgi body; details: hepg2, 8 h
# Huh-7 [8] = test: Cytotoxicity against human Huh-7 cells assessed as inhibition of cell growth incubated for 48 hrs by MTT assay; format: functional, cell-based; details: Huh-7, 48 h
# [9] = Ratio of amonafide IC50 to test compound IC50 for human MDA-MB-231 cells by MTT assay; format: functional
# A549 [10] = test: Inhibition of tumor metastasis in cisplatin-resistant human A549 cells assessed as upregulation of LC3-I protein expression level at 5 to 15 uM measured after 24 hrs by western blot analysis; format: functional, cell-based; details: dose 5-15 µM
# [11] = Upregulation of PAO expression in human Huh-7 cells at 10 uM measured after 24 hrs relative to control; format: functional
# HepG2 [12] = test: Cytotoxicity against human HepG2 cells assessed as reduction in cell viability at 5 to 15 uM incubated for 24 hrs in presence of polyamine transporter inhibitor, Spd by MTT assay; format: functional, cell-based; details: dose 5-15 µM
# [13] = Ratio of amonafide IC50 to test compound IC50 for cisplatin-resistant human A549 cells by MTT assay; format: functional
# HepG2 [14] = test: Downregulation of Spermine contents in human HepG2 cells measured after 24 hrs by HPLC analysis; format: functional, cell-based
# [15] = Toxicity in BALB/c mouse xenografted with human HCC cells assessed as effect on liver weight index at 1 to 5 mg/kg, iv administered once daily for 7 days; format: organism-based; details: in vivo, 168 h, dose 1-5 mg/kg, time 7 day
# [16] = Potency index, ratio of cisplatin IC50 to test compound IC50 for cisplatin-resistant human A549 cells by MTT assay; format: functional
# HepG2 [17] = test: Inhibition of tumor metastasis in human HepG2 cells assessed as upregulation of p53 gene expression level at 5 to 15 uM measured after 24 hrs by qRT-PCR analysis; format: functional, cell-based; details: dose 5-15 µM
# [18] = Ratio of amonafide IC50 to test compound IC50 for human MCF7 cells by MTT assay; format: functional
# [19] = Ratio of cisplatin IC50 to test compound IC50 for human MCF7 cells by MTT assay; format: functional
# A549 [20] = test: Cytotoxicity against cisplatin-resistant human A549 cells assessed as inhibition of cell growth incubated for 48 hrs by MTT assay; format: functional, cell-based; details: A549, 48 h
# Huh-7 [21] = test: Potency index, ratio of cisplatin IC50 to test compound IC50 for human Huh-7 cells by MTT assay; format: functional
# Huh-7 [22] = test: Cytotoxicity against human Huh-7 cells assessed as reduction in cell viability at 5 to 15 uM incubated for 24 hrs in presence of polyamine transporter inhibitor, Spd by MTT assay; format: functional, cell-based; details: dose 5-15 µM
# A549 [23] = test: Inhibition of tumor metastasis in cisplatin-resistant human A549 cells assessed as downregulation of LC3-II protein expression level at 5 to 15 uM measured after 24 hrs by western blot analysis; format: functional, cell-based; details: dose 5-15 µM
# HepG2 [24] = test: Inhibition of tumor metastasis in human HepG2 cells assessed as upregulation of p62 gene expression level at 5 to 15 uM measured after 24 hrs by qRT-PCR analysis; format: functional, cell-based; details: dose 5-15 µM
# Huh-7 [25] = test: Downregulation of Spermine contents in human Huh-7 cells measured after 24 hrs by HPLC analysis; format: functional, cell-based
# L02 = test: Cytotoxicity against human HL7702 cells assessed as inhibition of cell growth measured after 24 hrs by MTT assay; format: cell-based; details: L02, 24 h
# HepG2 [26] = test: Inhibition of tumor metastasis in human HepG2 cells assessed as upregulation of SSAT protein expression level at 5 to 15 uM measured after 24 hrs by western blot analysis; format: functional, cell-based; details: dose 5-15 µM
# A549 [27] = test: Potency index, ratio of amonafide IC50 to test compound IC50 for human A549 cells by MTT assay; format: functional
# [28] = Antitumor activity against human HCC cells xenografted in BALB/c mouse assessed as tumor volume administered iv once daily for 7 days measured on day 7 (reference value: 910 mm3); format: functional; details: time 7 day
# HepG2 [29] = test: Inhibition of tumor metastasis in human HepG2 cells assessed as downregulation of HMGB1 gene expression level measured after 24 hrs by qRT-PCR analysis; format: functional, cell-based; details: dose 5-15 µM
# [30] = Antitumor activity against human HCC cells xenografted in BALB/c mouse assessed as inhibition of tumor weight at 3 mg/kg, iv administered once daily for 7 days; format: functional; details: 168 h, time 7 day
# [31] = Drug uptake in endoplasmic reticulum of human HepG2 cells at 10 uM incubated for 8 hrs by ER-tarcker dye based laser confocal microscopy; format: ADME, subcellular; details: hepg2, 8 h
# [32] = Resistance factor, ratio of IC50 for cisplatin-resistant human A549 cells to IC50 for human A549 cells; format: functional
# [33] = Toxicity in BALB/c mouse xenografted with human HCC cells assessed as body weight at 1 to 5 mg/kg, iv administered once daily for 7 days; format: organism-based; details: in vivo, 168 h, dose 1-5 mg/kg, time 7 day
# Huh-7 [34] = test: Potency index, ratio of amonafide IC50 to test compound IC50 for human Huh-7 cells by MTT assay; format: functional
# [35] = Toxicity in BALB/c mouse xenografted with human HCC cells assessed as effect on heart weight index at 1 to 5 mg/kg, iv administered once daily for 7 days; format: organism-based; details: in vivo, 168 h, dose 1-5 mg/kg, time 7 day
# [36] = Antimetastatic activity against human HCC cells xenografted in BALB/c mouse assessed as reduction lung metastatic nodules at 5 mg/kg, iv administered once every 2 days for 14 days; format: functional; details: 336 h, time 14 day
# [37] = Drug uptake in mitochondria of human HepG2 cells at 10 uM incubated for 8 hrs by Mito-tarcker dye based laser confocal microscopy; format: ADME; details: hepg2, 8 h
# HepG2 [38] = test: Induction of apoptosis in human HepG2 cells assessed as induction of DNA damage by measuring upregulation of gammaH2AX expression at 5 to 15 uM; format: functional, cell-based; details: dose 5-15 µM
# Huh-7 [39] = test: Downregulation of Spermidine contents in human Huh-7 cells measured after 24 hrs by HPLC analysis; format: functional, cell-based
# Huh-7 [40] = test: Downregulation of Putrescine contents in human Huh-7 cells measured after 24 hrs by HPLC analysis; format: functional, cell-based
# HepG2 [41] = test: Inhibition of tumor metastasis in human HepG2 cells assessed as upregulation of LC3-I gene expression level at 5 to 15 uM measured after 24 hrs by qRT-PCR analysis; format: functional, cell-based; details: dose 5-15 µM
compound,measurement,setting,value
NCCCCNCCCCNCCCCN1C(=O)c2cccc3cc(NC(=O)CN)cc(c23)C1=O,inhibition in vivo at 1 mg/kg,[1],58.5%
same,inhibition,HepG2 [2],Active
same,fold change (FC),[3],1.5
same,inhibition,HepG2 [4],Active
same,inhibition,HepG2 [5],Active
same,Activity,[6],Non-Toxic
same,Drug uptake,[7],Not Active
same,IC50,Huh-7 [8],0.98 µM
same,Ratio IC50,[9],0.99
same,inhibition,A549 [10],Active
same,fold change (FC),[11],1.5
same,Activity,HepG2 [12],inactive
same,Ratio IC50,[13],0.62
same,inhibition,HepG2 [14],Active
same,Activity,[15],Non-Toxic
same,Ratio IC50,[16],2.76
same,inhibition,HepG2 [17],Active
same,Ratio IC50,[18],0.67
same,Ratio IC50,[19],0.59
same,IC50,A549 [20],15.5 µM
same,Ratio IC50,Huh-7 [21],15.33
same,Activity,Huh-7 [22],inactive
same,inhibition,A549 [23],Active
same,inhibition,HepG2 [24],Active
same,inhibition,Huh-7 [25],Active
same,IC50,L02,6.3 µM
same,inhibition,HepG2 [26],Active
same,Ratio IC50,A549 [27],1.15
same,Activity,[28],400 mm3
same,inhibition,HepG2 [29],Dose-Dependent Effect
same,inhibition in vivo at 3 mg/kg,[30],70.1%
same,Drug uptake,[31],Not Active
same,Ratio IC50,[32],0.76
same,Activity,[33],Non-Toxic
same,Ratio IC50,Huh-7 [34],8.69
same,Activity,[35],Non-Toxic
same,inhibition in vivo at 5 mg/kg,[36],75%
same,Drug uptake,[37],Not Active
same,Activity,HepG2 [38],Active
same,inhibition,Huh-7 [39],Active
same,inhibition,Huh-7 [40],Active
same,inhibition,HepG2 [41],Active
